The values below come from US20240148671A1, “METHODS FOR IMPROVING POULTRY HEALTH” (CORNELL UNIVERSITY, priority 2021, published 2024).

For one data set, the system named is hemoglobin (Hb). The experiment in a line: Blood hemoglobin (Hb) after intra-amniotic administration. Format: in vivo, Gallus gallus. The note with it: intra-amniotic 1 mL/egg on day 17; blood at hatch (day 21); mean ± SEM. The protocol: (§1) The pure resveratrol and pterostilbene were individually diluted in 18 MΩ H2O. The intra-amniotic administration followed the methodology previously described. On the 17th day of embryonic development, the eggs with viable embryos (n=60) were randomly allocated into 6 groups (n=10) with a similar weight frequency distribution. For the intra-amniotic treatment, 1 mL of solution per egg was injected into the amniotic fluid (via candling) with the aid of a 21-gauge needle. After the procedure, the injection sites were sealed with cellophane tape, and the eggs were distributed into six groups: (1) no injection; (2) 18 MΩ H2O; (3) 5% inulin; (4) 5% resveratrol; (5) 5% pterostilbene; and (6) synergistic: 4.75% resveratrol and 0.25% pterostilbene. […] The eggs were equally distributed in each incubator location to reduce possible allocation bias. Upon hatching (21 days), the hatchlings were euthanized by CO2 exposure, and the blood, liver, heart, pectoral muscle, small intestine and cecum were obtained.
Blood was collected using micro-hematocrit heparin-coated capillary tubes (Fisher Scientific, Waltham, MA, USA). The hemoglobin (Hb) concentration was assessed spectrophotometrically using the QuantiChrom™ Hb Assay (DIHB-250, BioAssay Systems, Hayward, CA, USA) and according to specific instructions.

Data set [1] can be described thus: Fe and Zn content in the serum and liver samples. Format: in vivo, Gallus gallus. The following applies: intra-amniotic 1 mL/egg on day 17, at hatch, mean ± SEM, n=8. The protocol:
as §1
The serum (50 μL) and liver (0.5 g) samples were mixed with 3.0 mL of a 60:40 (v/v) solution of nitric acid (HNO3) and perchloric acid (HClO4) and incubated overnight. After this, the samples were heated for 2 hours at 120° C. and added to 0.25 mL of 40 μg/g yttrium (internal standard), and the block temperature was increased to 145° C. for 2 h and then 190° C. for 10 min. At the end of these procedures, the samples were cooled, diluted to a total volume of 20 mL, mixed and transferred into autosampler tubes for analysis (inductively coupled plasma atomic emission spectrometer) (Thermo, Franklin, MA, USA).

Data set [2] is described as follows: Body weight, cecum weight and cecum:body weight ratio. Format: in vivo, Gallus gallus. The note with it: intra-amniotic 1 mL/egg on day 17; at hatch (day 21); mean ± SEM, n=8. The protocol: as §1
Data set [3] in a line: Glycogen in pectoral muscle. The note with it: intra-amniotic 1 mL/egg on day 17, at hatch, mean ± SEM, n=8. Format: in vivo, Gallus gallus. The protocol:
as §1

In the next data set the test system is Liver Ferritin. The experiment in a line: Liver ferritin. The note with it: intra-amniotic 1 mL/egg on day 17, at hatch, mean ± SEM, n=5. Type of data set: in vivo, Gallus gallus. The protocol:
as §1

Data set [4] has as its system duodenal tissue (villi, crypts, goblet cells). The experiment in a line: Morphometric examination of duodenal tissue. Type of data set: in vivo, Gallus gallus. The following applies: intra-amniotic 1 mL/egg on day 17, at hatch, mean ± SEM, n=5; for Depth of Crypts (μm) / Mucus Layer Width (μm) / Villus Diameter (μm) / Villus Length (μm): duodenum; for Crypt Goblet Cell Number / Goblet Cell Diameter (μM) / Villus Goblet Cell Type Number, Acidic / Villus Goblet Cell Type Number, Mixed / Villus Goblet Cell Type Number, Neutral: small intestine. The protocol:
as §1
Villus epithelium analysis was conducted as previously published. The duodenal samples were soaked in buffered formaldehyde (4% (v/v)), dehydrated, cleared and embedded in paraffin. Numerous sections were cut with a thickness of 5 μm and put on slides. The sections were deparaffinized in xylene, after which they were rehydrated in a series of graded alcohol. Finally, the slides were stained with Alcian Blue-periodic acid-Schiff and investigated under a light microscopy. The variables were assessed (light microscope, EPIX XCAP software, standard version, Olympus, Waltham, MA, USA) for the following: villus length, villus diameter, depth of crypts, goblet cell diameter, crypt goblet cell number and villus goblet cells type number (acidic, neutral or mixed). Four segments for each biological sample and five biological samples per treatment group were examined. The goblet cells were enumerated at 10 villi/sample, and the means were calculated for statistical analysis.

The conditions of data set [5]: absorption in the gut lumen, literature refs 11, 12 (Kapetanovic et al.; Walle), cited from earlier work.
For a further data set, the system named is cecal microbiome. The experiment in a line: 16S rRNA gene sequencing of the cecal microbiota. Type of data set: in vivo, Gallus gallus. The note with it: cecal content at hatch, n=5; 5% inulin vs all other experimental groups (p<0.01); 5% pterostilbene vs 18 MΩ H2O control (p<0.05); stilbene groups among each other. The protocol:
as §1
As was formerly described, cecal samples were used to extract microbial genomic DNA (PowerSoil DNA isolation kit, MoBio Laboratories Ltd., Carlsbad, CA, USA). […] The PCR products were purified (Beckman Coulter, Atlanta, GA, USA) and quantified (Quant-iT PicoGreen dsDNA quantitation kit, Invitrogen, Carlsbad, CA, USA). […]
The 16S rRNA gene sequence analysis was performed using QIIME2 as previously described. The sequence reads were demultiplexed by per-sample barcodes, and the Divisive Amplicon Denoising Algorithm (DADA2) was used to correct the Illumina-sequenced amplicon read errors. […] The alpha and β diversity were calculated from samples containing at least 9.800 sequences. The alpha diversity parameter, a measure of the richness of the bacterial community, was calculated using the Shannon Index, and the beta diversity was assessed by a Jaccard similarity distance matrix. […]
The values in this paper were expressed as means and standard errors of the means (SEM). […] The results were analyzed by Analysis of Variance (ANOVA). […]

Entries after “also recorded” stand apart in the source; their conditions may differ. Like-named read-outs stand apart in the source and are kept apart here. Marks after values point to notes of the source that are not given here.

With `COc1cc(/C=C/c2ccc(O)cc2)cc(OC)c1` [5% Pterostilbene, Pterostilbene], the “Hb (g/dL)” value with hemoglobin (Hb) is listed as 8.95 ± 0.77^a g/dL. Moreover, in data set [1], the “Liver Iron (μg/g)” value is given as 37.43 ± 1.52 ^ab μg/g, the “Liver Zinc (μg/g)” value is listed as 14.43 ± 0.49 ^b μg/g, the “Serum Iron (μg/g)” value is 2.94 ± 0.44 ^b μg/g and the “Serum Zinc (μg/g)” value was 1.33 ± 0.20 ^a μg/g. In data set [2], the “Body Weight Average (g)” value is reported as 46.7 ± 0.7^a g, the “Cecum Weight Average (g)” value was 0.6 ± 0.1^a g and the “Cecum:Body Weight Ratio” value is given as 0.013 ± 0.001^a. The “Glycogen (mg/g)” value in data set [3] is 0.033 ± 0.010^a mg/g. For the same compound, the “Liver Ferritin (A.U.)” value in the data set with Liver Ferritin was 1.011 ± 0.351^bc A.U. Moreover, in data set [4], the “Depth of Crypts (μm)” value is listed as 66.41 ± 1.19^a μm, the “Mucus Layer Width (μm)” value is recorded as 3.76 ± 0.10^e μm, the “Villus Diameter (μm)” value is on record as 81.33 ± 4.95^a μm and the “Villus Length (μm)” value was 451.58 ± 11.21^b μm. In data set [4], the “Crypt Goblet Cell Number” value was 10.04 ± 0.18 ^c; the “Goblet Cell Diameter (μM)” value is 7.81 ± 0.07 ^b μM; the “Villus Goblet Cell Type Number, Acidic” value was 10.78 ± 0.22 ^ab; the “Villus Goblet Cell Type Number, Mixed” value was 0.28 ± 0.05 ^b. The “Villus Goblet Cell Type Number, Neutral” value in data set [4] was 0.00 ± 0.00 ^b. Moreover, the bioavailability (usually the share of a dose that reaches the circulation, judged against a reference dose that is usually intravenous) in data set [5] is on record as 80%. The bioavailability entry in data set [5] (listed as pterostilbenes) is recorded as “about 80%”.

Consider inulin [5% Inulin, reference compound], for which the “Hb (g/dL)” value with hemoglobin (Hb) is reported as 8.86 ± 0.69^a g/dL. In data set [1], the “Liver Iron (μg/g)” value is given as 48.96 ± 4.39 ^a μg/g, the “Liver Zinc (μg/g)” value was 18.23 ± 0.88 ^ab μg/g, the “Serum Iron (μg/g)” value was 2.76 ± 0.33 ^b μg/g and the “Serum Zinc (μg/g)” value is listed as 0.97 ± 0.08 ^bc μg/g. Also, in data set [2], the “Body Weight Average (g)” value is listed as 49.7 ± 0.9^a g, the “Cecum Weight Average (g)” value is 0.6 ± 0.1^a g and the “Cecum:Body Weight Ratio” value was 0.012 ± 0.001^a. The “Glycogen (mg/g)” value in data set [3] is reported as 0.029 ± 0.005^a mg/g. In addition, the “Liver Ferritin (A.U.)” value in the data set on Liver Ferritin is 0.148 ± 0.005^c A.U. In data set [4], the “Depth of Crypts (μm)” value is 51.30 ± 1.07^b μm, the “Mucus Layer Width (μm)” value is given as 5.27 ± 0.13^c μm, the “Villus Diameter (μm)” value is recorded as 44.57 ± 0.79^d μm and the “Villus Length (μm)” value is reported as 262.54 ± 3.76^d μm. Moreover, in data set [4], the “Crypt Goblet Cell Number” value is on record as 12.27 ± 0.33 ^a; the “Goblet Cell Diameter (μM)” value is given as 7.12 ± 0.06 ^d μM; the “Villus Goblet Cell Type Number, Acidic” value is reported as 10.65 ± 0.25 ^ab; the “Villus Goblet Cell Type Number, Mixed” value is 0.02 ± 0.01 ^e. The “Villus Goblet Cell Type Number, Neutral” value in data set [4] is given as 0.00 ± 0.00 ^b. The “β diversity of the cecal microbiome (Jaccard distances), comparison between groups” value in the data set on cecal microbiome is “statistical differences; also recorded: differed”.
